2 compounds from ChEMBL document CHEMBL5653615 (J Biol Chem, 2013) can be followed below.

Experiment [1] concerns the target Cyclin-dependent kinase 4/cyclin D1 (Homo sapiens) (UniProt P11802+P24385). Briefly: Inhibition of human CDK4/cyclin D1 at 500 nM by HotSpot assay relative to control. It counts as protein-complex assay.
The target in experiment [2] is Dual specificity protein kinase CLK3 (Homo sapiens) (UniProt P49761). Briefly: Inhibition of human CLK3 at 500 nM by HotSpot assay relative to control.
Dual specificity protein kinase CLK3 (Homo sapiens), sequence (P49761 whole entry, looked up): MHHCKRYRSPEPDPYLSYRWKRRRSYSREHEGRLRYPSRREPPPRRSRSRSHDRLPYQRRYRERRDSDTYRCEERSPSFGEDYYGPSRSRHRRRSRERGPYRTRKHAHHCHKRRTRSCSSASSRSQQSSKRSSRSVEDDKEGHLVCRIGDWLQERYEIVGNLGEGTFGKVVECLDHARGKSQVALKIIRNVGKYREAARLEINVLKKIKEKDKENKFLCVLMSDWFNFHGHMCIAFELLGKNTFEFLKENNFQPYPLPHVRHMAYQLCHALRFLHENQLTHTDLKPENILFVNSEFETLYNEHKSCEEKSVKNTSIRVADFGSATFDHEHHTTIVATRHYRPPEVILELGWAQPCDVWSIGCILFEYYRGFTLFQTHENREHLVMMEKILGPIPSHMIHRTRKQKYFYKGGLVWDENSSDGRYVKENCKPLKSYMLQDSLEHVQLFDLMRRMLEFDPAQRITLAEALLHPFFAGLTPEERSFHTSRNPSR
Experiment [3] deals with T1, Megakaryocyte-associated tyrosine-protein kinase (Homo sapiens) (UniProt P42679).
T1 sequence (whole entry): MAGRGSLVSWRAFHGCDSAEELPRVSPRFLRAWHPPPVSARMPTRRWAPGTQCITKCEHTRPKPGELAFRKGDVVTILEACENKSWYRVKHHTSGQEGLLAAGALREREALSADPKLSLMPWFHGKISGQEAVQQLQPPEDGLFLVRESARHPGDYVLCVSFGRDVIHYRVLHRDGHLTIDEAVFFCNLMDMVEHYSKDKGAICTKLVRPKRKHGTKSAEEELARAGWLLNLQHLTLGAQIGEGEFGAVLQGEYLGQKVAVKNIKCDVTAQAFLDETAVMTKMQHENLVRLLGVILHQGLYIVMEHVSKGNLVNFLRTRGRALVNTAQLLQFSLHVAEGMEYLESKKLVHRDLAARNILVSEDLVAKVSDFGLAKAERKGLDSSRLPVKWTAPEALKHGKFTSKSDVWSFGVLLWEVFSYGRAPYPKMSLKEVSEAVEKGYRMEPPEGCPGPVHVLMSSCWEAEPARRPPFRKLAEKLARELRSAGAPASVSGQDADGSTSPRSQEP
Briefly: Inhibition of human CTK at 500 nM by HotSpot assay relative to control.

Experiment [4] has as its target Death-associated protein kinase 2 (Homo sapiens) (UniProt Q9UIK4). Briefly: Inhibition of human DAPK2 at 500 nM by HotSpot assay relative to control.
The target of experiment [5] is T2, Dual specificity tyrosine-phosphorylation-regulated kinase 2 (Homo sapiens) (UniProt Q92630).
T2 sequence (whole entry): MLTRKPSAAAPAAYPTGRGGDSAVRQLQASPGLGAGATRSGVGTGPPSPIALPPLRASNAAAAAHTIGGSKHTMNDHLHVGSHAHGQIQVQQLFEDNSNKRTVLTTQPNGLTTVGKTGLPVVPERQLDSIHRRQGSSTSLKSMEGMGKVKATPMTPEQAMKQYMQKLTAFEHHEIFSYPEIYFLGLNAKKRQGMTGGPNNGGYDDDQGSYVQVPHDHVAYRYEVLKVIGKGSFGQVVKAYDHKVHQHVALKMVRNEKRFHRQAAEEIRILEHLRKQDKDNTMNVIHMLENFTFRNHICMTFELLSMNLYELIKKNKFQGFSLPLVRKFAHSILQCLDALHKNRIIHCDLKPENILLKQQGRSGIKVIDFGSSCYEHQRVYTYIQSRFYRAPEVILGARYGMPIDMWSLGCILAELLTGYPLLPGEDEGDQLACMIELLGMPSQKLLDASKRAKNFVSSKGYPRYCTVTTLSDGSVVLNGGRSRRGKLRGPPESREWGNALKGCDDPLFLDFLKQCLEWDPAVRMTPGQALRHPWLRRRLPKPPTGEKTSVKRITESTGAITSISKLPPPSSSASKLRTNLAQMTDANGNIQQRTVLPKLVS
Briefly: Inhibition of human DYRK2 at 500 nM by HotSpot assay relative to control.

Experiment [6] has as its target MAP kinase-activated protein kinase 5 (Homo sapiens) (UniProt Q8IW41). Briefly: Inhibition of human MAPKAPK5 at 500 nM by HotSpot assay relative to control.
The target in experiment [7] is Serine/threonine-protein kinase MRCK alpha (Homo sapiens) (UniProt Q5VT25). Briefly: Inhibition of human CDC42BPA at 500 nM by HotSpot assay relative to control.
Experiment [8] deals with Serine/threonine-protein kinase MRCK beta (Homo sapiens) (UniProt Q9Y5S2). Briefly: Inhibition of human CDC42BPB at 500 nM by HotSpot assay relative to control.
Serine/threonine-protein kinase MRCK beta (Homo sapiens), sequence (Q9Y5S2 whole entry): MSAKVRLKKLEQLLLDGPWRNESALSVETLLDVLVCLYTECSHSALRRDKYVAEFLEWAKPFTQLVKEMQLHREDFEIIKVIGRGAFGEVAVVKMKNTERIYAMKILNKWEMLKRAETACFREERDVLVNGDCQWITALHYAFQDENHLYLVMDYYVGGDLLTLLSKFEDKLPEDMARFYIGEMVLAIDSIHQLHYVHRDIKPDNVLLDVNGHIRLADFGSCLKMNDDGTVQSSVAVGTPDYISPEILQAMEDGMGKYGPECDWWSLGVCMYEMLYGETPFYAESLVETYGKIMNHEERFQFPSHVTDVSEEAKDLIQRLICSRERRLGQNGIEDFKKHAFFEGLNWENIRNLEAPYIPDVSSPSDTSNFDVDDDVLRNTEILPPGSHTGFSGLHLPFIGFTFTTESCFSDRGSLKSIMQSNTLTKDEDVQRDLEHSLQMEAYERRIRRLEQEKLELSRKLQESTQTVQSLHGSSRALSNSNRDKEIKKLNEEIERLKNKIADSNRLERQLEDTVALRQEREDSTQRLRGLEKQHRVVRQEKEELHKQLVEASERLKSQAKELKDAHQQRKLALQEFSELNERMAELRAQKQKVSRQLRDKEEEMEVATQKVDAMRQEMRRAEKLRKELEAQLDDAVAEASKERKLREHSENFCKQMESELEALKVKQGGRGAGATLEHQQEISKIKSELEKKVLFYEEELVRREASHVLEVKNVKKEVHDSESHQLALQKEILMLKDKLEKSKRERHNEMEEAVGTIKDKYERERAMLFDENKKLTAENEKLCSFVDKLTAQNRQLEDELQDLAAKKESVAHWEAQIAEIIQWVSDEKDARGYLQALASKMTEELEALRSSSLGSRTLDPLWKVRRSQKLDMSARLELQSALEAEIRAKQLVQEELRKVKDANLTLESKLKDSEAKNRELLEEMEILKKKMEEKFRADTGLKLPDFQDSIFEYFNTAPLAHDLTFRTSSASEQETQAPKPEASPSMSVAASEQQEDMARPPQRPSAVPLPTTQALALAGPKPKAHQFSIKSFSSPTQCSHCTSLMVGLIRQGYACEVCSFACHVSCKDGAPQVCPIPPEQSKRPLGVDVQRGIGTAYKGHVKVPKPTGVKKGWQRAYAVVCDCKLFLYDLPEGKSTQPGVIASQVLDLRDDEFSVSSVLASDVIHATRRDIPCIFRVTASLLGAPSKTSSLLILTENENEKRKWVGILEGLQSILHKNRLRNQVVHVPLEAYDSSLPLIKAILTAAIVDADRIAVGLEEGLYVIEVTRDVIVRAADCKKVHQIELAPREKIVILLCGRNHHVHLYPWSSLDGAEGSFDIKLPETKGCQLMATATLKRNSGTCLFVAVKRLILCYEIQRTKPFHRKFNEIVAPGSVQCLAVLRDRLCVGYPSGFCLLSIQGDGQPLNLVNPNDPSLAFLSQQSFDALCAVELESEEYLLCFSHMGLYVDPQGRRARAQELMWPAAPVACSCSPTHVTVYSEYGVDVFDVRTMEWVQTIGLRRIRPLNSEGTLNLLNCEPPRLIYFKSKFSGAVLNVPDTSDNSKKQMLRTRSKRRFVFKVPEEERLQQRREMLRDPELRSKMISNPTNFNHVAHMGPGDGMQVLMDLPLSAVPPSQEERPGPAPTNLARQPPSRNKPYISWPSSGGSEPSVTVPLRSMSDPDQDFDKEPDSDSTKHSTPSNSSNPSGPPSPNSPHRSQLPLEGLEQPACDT
For experiment [9], the target named is SRSF protein kinase 3 (Homo sapiens) (UniProt Q9UPE1). Briefly: Inhibition of human STK23 at 500 nM by HotSpot assay relative to control.
SRSF protein kinase 3 (Homo sapiens), sequence (Q9UPE1 whole entry): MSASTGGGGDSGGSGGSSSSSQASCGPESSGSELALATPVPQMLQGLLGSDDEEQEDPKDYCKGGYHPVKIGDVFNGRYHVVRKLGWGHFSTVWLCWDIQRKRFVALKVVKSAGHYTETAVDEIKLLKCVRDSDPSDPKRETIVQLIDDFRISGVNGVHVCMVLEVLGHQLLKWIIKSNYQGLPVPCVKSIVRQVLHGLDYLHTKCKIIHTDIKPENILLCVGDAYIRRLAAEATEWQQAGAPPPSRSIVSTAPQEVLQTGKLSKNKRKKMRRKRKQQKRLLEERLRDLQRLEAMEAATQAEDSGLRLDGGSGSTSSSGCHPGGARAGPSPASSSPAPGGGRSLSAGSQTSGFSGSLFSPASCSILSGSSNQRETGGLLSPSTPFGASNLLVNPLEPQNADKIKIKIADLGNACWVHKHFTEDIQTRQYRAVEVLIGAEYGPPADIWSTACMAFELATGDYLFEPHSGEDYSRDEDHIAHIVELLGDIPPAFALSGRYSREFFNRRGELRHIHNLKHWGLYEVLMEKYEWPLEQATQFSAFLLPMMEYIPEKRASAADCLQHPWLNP
The target of experiment [10] is Serine/threonine-protein kinase Nek4 (Homo sapiens) (UniProt P51957). Briefly: Inhibition of human NEK4 at 500 nM by HotSpot assay relative to control.
Serine/threonine-protein kinase Nek4 (Homo sapiens), sequence (P51957 whole entry, looked up): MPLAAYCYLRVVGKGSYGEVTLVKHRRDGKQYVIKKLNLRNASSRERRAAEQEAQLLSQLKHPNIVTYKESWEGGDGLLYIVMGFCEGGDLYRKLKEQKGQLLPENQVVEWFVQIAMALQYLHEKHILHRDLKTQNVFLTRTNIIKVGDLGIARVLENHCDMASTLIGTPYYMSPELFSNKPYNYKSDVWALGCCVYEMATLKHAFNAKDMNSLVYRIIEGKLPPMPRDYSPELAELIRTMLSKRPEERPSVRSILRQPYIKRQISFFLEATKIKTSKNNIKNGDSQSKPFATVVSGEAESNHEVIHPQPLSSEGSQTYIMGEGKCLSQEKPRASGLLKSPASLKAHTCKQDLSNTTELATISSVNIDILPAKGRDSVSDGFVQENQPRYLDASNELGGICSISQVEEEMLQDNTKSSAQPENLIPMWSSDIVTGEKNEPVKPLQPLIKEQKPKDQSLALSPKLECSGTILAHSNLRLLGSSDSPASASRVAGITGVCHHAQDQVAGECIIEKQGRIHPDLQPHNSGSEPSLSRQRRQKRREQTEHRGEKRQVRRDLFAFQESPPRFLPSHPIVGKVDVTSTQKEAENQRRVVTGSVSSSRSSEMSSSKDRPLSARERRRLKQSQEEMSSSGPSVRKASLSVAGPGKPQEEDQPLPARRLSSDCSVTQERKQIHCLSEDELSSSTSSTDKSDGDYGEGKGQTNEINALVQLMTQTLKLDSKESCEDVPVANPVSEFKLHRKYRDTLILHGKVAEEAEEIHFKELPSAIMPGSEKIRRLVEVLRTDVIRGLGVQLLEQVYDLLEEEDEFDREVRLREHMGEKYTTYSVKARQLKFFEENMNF
The target in experiment [11] is Mitogen-activated protein kinase 14 (Homo sapiens) (UniProt Q16539). Briefly: Inhibition of human MAPK14 at 500 nM by HotSpot assay relative to control.
The target of experiment [12] is Ribosomal protein S6 kinase beta-1 (Homo sapiens) (UniProt P23443). Briefly: Inhibition of human RPS6KB1 at 500 nM by HotSpot assay relative to control.
Ribosomal protein S6 kinase beta-1 (Homo sapiens), sequence (P23443 whole entry, looked up): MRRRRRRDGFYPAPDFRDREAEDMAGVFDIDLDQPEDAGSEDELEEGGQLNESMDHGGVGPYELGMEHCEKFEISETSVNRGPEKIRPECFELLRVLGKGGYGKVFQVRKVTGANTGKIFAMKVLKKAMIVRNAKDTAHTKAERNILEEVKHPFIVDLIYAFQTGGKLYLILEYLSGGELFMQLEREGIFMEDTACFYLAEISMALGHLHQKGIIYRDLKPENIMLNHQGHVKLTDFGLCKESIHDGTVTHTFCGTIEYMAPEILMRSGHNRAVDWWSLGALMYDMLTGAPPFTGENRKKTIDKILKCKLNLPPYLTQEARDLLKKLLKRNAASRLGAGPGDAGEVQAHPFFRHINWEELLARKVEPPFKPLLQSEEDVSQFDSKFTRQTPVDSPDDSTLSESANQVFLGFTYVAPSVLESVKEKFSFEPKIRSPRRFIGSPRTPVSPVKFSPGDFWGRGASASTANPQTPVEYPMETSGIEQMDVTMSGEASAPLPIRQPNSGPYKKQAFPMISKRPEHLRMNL
Experiment [13] addresses T3, cGMP-dependent protein kinase 1 (Homo sapiens) (UniProt Q13976).
T3 sequence (whole entry): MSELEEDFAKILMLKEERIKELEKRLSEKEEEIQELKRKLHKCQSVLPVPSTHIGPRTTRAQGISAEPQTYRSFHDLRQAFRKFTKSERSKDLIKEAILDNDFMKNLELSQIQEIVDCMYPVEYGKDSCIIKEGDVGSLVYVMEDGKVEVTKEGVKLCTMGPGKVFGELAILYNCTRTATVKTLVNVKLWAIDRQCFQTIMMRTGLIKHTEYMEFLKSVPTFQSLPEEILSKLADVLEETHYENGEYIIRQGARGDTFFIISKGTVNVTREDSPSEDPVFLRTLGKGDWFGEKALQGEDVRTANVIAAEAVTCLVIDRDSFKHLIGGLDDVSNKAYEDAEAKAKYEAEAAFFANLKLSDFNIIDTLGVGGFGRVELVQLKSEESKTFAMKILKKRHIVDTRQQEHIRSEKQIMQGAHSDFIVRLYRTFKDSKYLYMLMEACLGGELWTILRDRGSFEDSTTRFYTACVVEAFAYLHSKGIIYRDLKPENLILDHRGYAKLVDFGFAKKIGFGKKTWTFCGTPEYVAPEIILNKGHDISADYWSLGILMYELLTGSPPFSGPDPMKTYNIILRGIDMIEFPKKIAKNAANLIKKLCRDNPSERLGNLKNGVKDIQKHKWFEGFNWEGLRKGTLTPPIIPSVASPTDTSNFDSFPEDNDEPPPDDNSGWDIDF
Briefly: Inhibition of human PKG1b at 500 nM by HotSpot assay relative to control.

Experiment [14] has as its target Serine/threonine-protein kinase N1 (Homo sapiens) (UniProt Q16512). Briefly: Inhibition of human PRK1 at 500 nM by HotSpot assay relative to control.
In experiment [15] the target is Proto-oncogene tyrosine-protein kinase receptor Ret (Homo sapiens) (UniProt P07949). Briefly: Inhibition of human RET at 500 nM by HotSpot assay relative to control.
The target of experiment [16] is Tyrosine-protein kinase SYK (Homo sapiens) (UniProt P43405). Briefly: Inhibition of human SYK at 500 nM by HotSpot assay relative to control.
Experiment [17] deals with Mitogen-activated protein kinase kinase kinase 7 (Homo sapiens) (UniProt O43318). Briefly: Inhibition of human TAK1 at 500 nM by HotSpot assay relative to control.

Death-associated protein kinase 2 (Homo sapiens), sequence (Q9UIK4 whole entry, looked up): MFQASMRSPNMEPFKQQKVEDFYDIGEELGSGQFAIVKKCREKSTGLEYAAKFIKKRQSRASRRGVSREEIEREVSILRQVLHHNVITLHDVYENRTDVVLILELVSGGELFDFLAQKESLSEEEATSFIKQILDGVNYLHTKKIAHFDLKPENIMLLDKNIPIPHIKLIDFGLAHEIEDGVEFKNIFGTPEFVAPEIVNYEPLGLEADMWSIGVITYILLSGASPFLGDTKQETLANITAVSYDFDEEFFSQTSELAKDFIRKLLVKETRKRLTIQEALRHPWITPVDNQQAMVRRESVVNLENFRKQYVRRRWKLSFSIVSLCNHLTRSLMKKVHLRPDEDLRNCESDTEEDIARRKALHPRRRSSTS
MAP kinase-activated protein kinase 5 (Homo sapiens), sequence (Q8IW41 whole entry): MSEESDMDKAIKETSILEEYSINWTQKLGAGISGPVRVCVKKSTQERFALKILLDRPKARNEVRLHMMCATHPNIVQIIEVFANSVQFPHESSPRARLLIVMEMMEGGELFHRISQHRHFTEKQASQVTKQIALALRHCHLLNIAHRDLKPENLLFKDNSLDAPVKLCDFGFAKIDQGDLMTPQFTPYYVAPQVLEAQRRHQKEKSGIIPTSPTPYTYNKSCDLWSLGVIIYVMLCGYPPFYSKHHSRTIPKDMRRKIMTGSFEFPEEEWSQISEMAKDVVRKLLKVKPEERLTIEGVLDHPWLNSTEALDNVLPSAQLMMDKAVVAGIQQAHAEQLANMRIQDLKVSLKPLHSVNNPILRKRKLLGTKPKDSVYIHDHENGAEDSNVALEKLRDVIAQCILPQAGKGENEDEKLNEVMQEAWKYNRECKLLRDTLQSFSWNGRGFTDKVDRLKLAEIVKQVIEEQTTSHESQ

With `Oc1n[nH]c2nnc(-c3c(-c4ccccc4)nn4ccccc34)cc12`, the inhibition is 1.57% in [1]; 1.04% in experiment [2]; 1.78% in experiment [3]; -0.84% in [4]; -3.03% in experiment [5]; 4.74% in experiment [6]. The inhibition is 6.74% in experiment [7]; 4.33% in experiment [8]; 0.76% in experiment [9]; 5.04% in experiment [10]; -1.15% in [11]; -2.37% in experiment [12]. In addition, the inhibition in experiment [13] is 10.6%; in experiment [14] it was -0.85%; in [15] it was -3.97%; in experiment [16], 0.47%; in experiment [17], -3.14%.
Take `Nc1n[nH]c2nnc(-c3c(-c4ccccc4)nn4ccccc34)cc12`: the inhibition is 10.8% in experiment [1]; 5.1% in experiment [2]; 4.4% in experiment [3]; -2.75% in experiment [4]; -3.42% in experiment [5]; 2.31% in [6]. The inhibition turned out to be 10.3% in experiment [7]; 6.62% in experiment [8]; 11.2% in experiment [9]; 11.6% in experiment [10]; 5.42% in [11]; 2.28% in experiment [12]. The inhibition is 10.5% in experiment [13]; 1.8% in experiment [14]; 6.33% in experiment [15]; 2.6% in [16]; -1.47% in experiment [17].
